Data on 16 molecules can be found in PubChem BioAssay (NCI).

Structures are written as SMILES.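 In this assay, cells in 96-well plates receive the compound at five concentrations for 48 hours. Endpoints are linearly interpolated between the surrounding concentrations. The concentration for full growth arrest is given as TGI.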 Some results are limits rather than exact numbers.

Some test systems named below: PC-3 prostate; SF-539 CNS; OVCAR-8 ovarian; CCRF-CEM leukemia; TK-10 renal; MDA-MB-435; A549 NSCLC; EKVX NSCLC; UACC-257 melanoma; T-47D breast.
Experiment in all cases: DTP human tumour cell line panel, 48 h

The TGI is the concentration giving total growth inhibition. With `Cc1ccccc1N=C(N)NC#N`, the TGI in the assay on PC-3 prostate, with SF-539 CNS, in the assay with OVCAR-8 ovarian, in the assay with CCRF-CEM leukemia, in the assay with TK-10 renal and with MDA-MB-435 was over 100 µM each time. Also, the TGI in the assay with A549 NSCLC, with EKVX NSCLC and in the assay with UACC-257 melanoma was over 100 µM throughout.
Consider `CCOC(=O)C(=[N+]=[N-])C(=O)C[N+]12CCN(CC1)CC2`, for which the TGI with PC-3 prostate, in the assay with OVCAR-8 ovarian, with CCRF-CEM leukemia, with TK-10 renal, in the assay on MDA-MB-435 and with A549 NSCLC was over 100 µM throughout. Also, the TGI in the assay with T-47D breast and in the assay on UACC-257 melanoma was over 100 µM each time.
In the case of `COc1c(-c2cc(C)c(Cl)c(=O)[nH]2)c(O)c(OC)c2occc12`, the TGI in the assay with PC-3 prostate, in the assay with SF-539 CNS, in the assay with OVCAR-8 ovarian, with TK-10 renal, with MDA-MB-435 and with A549 NSCLC was over 100 µM in each case. Moreover, the TGI in the assay on T-47D breast, in the assay on EKVX NSCLC and in the assay on UACC-257 melanoma was over 100 µM in each case.
With `CCCC1NC(C#N)(C#N)C(CCC)NC1(C#N)C#N` (centres undefined), the TGI in the assay on PC-3 prostate was over 88.7 µM; with OVCAR-8 ovarian, 21.6 µM; in the assay on CCRF-CEM leukemia, 17.8 µM; in the assay with TK-10 renal, over 100 µM; with MDA-MB-435, 26.8 µM; in the assay with A549 NSCLC, over 100 µM. Also, the TGI in the assay with T-47D breast is over 71.5 µM; with EKVX NSCLC it was over 100 µM; with UACC-257 melanoma, over 100 µM.
As for `Nn1c(Cc2ccc(Cl)cc2)n[nH]c1=O`, the TGI in the assay with SF-539 CNS, in the assay on OVCAR-8 ovarian, in the assay with CCRF-CEM leukemia, in the assay with TK-10 renal, with MDA-MB-435 and in the assay with A549 NSCLC was over 100 µM each time. Besides, the TGI with T-47D breast, in the assay with EKVX NSCLC and with UACC-257 melanoma was over 100 µM in each case.
With `O=C1C=Cc2c(Cl)sc(Cl)c21`, the TGI with PC-3 prostate was 4.83 µM; with CCRF-CEM leukemia, 1.36 µM; in the assay with TK-10 renal it was 4.39 µM; in the assay on MDA-MB-435, 5.31 µM; in the assay on A549 NSCLC, over 90.6 µM; in the assay with T-47D breast, over 22.7 µM. Further, the values for the TGI in the assay with EKVX NSCLC and in the assay with UACC-257 melanoma were 16.8 µM and 4.78 µM, respectively.
`Cc1cn(C2CC(O)C(CO)C2C)c(=O)[nH]c1=O` (centres undefined): the TGI in the assay on SF-539 CNS, with OVCAR-8 ovarian, with CCRF-CEM leukemia, in the assay on A549 NSCLC, with EKVX NSCLC and in the assay on UACC-257 melanoma was over 100 µM in each case.
Regarding `CC1CN=C(Nc2cccc(C(F)(F)F)c2)S1` (centres undefined), the TGI in the assay on SF-539 CNS, with CCRF-CEM leukemia, with TK-10 renal, with MDA-MB-435, in the assay on T-47D breast and in the assay with EKVX NSCLC was over 100 µM in each case. This molecule yielded a TGI with UACC-257 melanoma of over 100 µM.
Turning to `N#CCCNCCN(CCN(C(=O)Nc1ccccc1)c1ccccc1)C(=O)Nc1ccccc1`, the TGI in the assay with PC-3 prostate, in the assay on OVCAR-8 ovarian, with CCRF-CEM leukemia, in the assay on TK-10 renal, in the assay on A549 NSCLC and with T-47D breast was over 100 µM throughout. Further, the values for the TGI with EKVX NSCLC and with UACC-257 melanoma were over 100 µM and 32.1 µM, respectively.
Regarding `CC(=O)Nc1ccc(S(=O)(=O)Nc2nnc(S(N)(=O)=O)s2)cc1`, the TGI in the assay on SF-539 CNS, in the assay on TK-10 renal, in the assay with MDA-MB-435, with A549 NSCLC, in the assay on T-47D breast and with EKVX NSCLC was over 100 µM each time.
Take `Cn1ccnc1CCc1ccc(F)cc1F`: the TGI with PC-3 prostate, in the assay with SF-539 CNS, in the assay with OVCAR-8 ovarian, with CCRF-CEM leukemia, in the assay on TK-10 renal and with MDA-MB-435 was over 100 µM in each case. The TGI in the assay with A549 NSCLC, in the assay on T-47D breast and with EKVX NSCLC was over 100 µM in each case.
As for `CC(=O)N1N=C(c2c(O)ccc3ccccc23)CC1C(=O)c1ccco1` (centres undefined), the TGI was over 100 µM in the assay with PC-3 prostate; 66.9 µM in the assay with SF-539 CNS; over 100 µM in the assay with OVCAR-8 ovarian; 57 µM in the assay on CCRF-CEM leukemia; over 100 µM in the assay on TK-10 renal; over 100 µM with MDA-MB-435. Moreover, the TGI with A549 NSCLC, with T-47D breast and in the assay with UACC-257 melanoma was over 100 µM each time.
With `C=Nc1ccc([N+](=O)[O-])cc1`, the TGI with SF-539 CNS, in the assay on OVCAR-8 ovarian, in the assay on CCRF-CEM leukemia, with TK-10 renal, in the assay on A549 NSCLC and in the assay on EKVX NSCLC was over 100 µM each time. Further, the TGI in the assay with UACC-257 melanoma was over 100 µM.
As to `Cc1ccc(S(=O)(=O)NC(=O)NC(Cc2c[nH]c3ccccc23)C(=O)O)cc1` (centres undefined), the TGI with PC-3 prostate, in the assay with SF-539 CNS, in the assay with OVCAR-8 ovarian, with CCRF-CEM leukemia, in the assay on TK-10 renal and in the assay on A549 NSCLC was over 100 µM throughout. For the same molecule, the TGI in the assay with T-47D breast and in the assay on UACC-257 melanoma was over 100 µM in each case.
`O=C1NN=C(c2ccc(Cl)cc2)CC1C1C(=O)N(c2ccccc2)N=C1c1ccccc1` (centres undefined): the TGI in the assay with PC-3 prostate is 72.3 µM; with SF-539 CNS it was 66.8 µM; in the assay with OVCAR-8 ovarian, over 100 µM; in the assay with CCRF-CEM leukemia it was 76.3 µM; with TK-10 renal it was over 100 µM; in the assay on MDA-MB-435 it was 77.4 µM. Besides, the TGI in the assay on A549 NSCLC, with T-47D breast and in the assay on EKVX NSCLC was over 100 µM each time.
For `O=C(NCC1Nc2ccncc2S(=O)(=O)N1)c1ccc(Br)cc1` (centres undefined), the TGI in the assay on PC-3 prostate was 51.4 µM; with OVCAR-8 ovarian it was over 100 µM; in the assay on TK-10 renal, over 100 µM; in the assay with MDA-MB-435, 37.2 µM; in the assay with A549 NSCLC, over 100 µM; in the assay with T-47D breast it was over 100 µM. Moreover, the TGI in the assay on EKVX NSCLC and in the assay on UACC-257 melanoma was over 100 µM throughout.
